Test results as given in patent US4427587A, “Total synthesis of antitumor antibiotics BBM-2040A and BBM-2040B” (Bristol-Myers Company, priority 1982, dated 1984).
Converted amounts (≈) assume the structure as drawn. Where two headings read alike, the source gives them in different places.

Tests used:
lymphatic leukemia P388 = assay: antitumor activity against P388 leukemia in mice, second experiment (Table 7); format: in vivo, male BDF1 mice; details: QD 1→9; for Effect MST % T/C: ≥ 125 significant; for antitumor activity in second P388 experiment (in words): i.p., epimer: 1 mg/kg/day, the highest dose tested
Description: In this experiment lymphatic leukemia P388 was implanted intraperitoneally into male BDF1 mice at an inoculum size of 10^6 cells per mouse. Test compounds were dissolved in 0.9% saline containing 10% dimethylsulfoxide. Graded doses of test compounds were administered to mice intraperitoneally 24 hours after the tumor implantation, and the treatment was continued once daily for 9 days.
Tumor inoculum: 10^6 ascites cells implanted i.p.
Treatment: QD 1→9, i.p.
Evaluation: MST = median survival time
Effect: % T/C = (MST treated/MST control) × 100
Criteria: % T/C ≥ 125 considered as significant antitumor activity

[1] = tested on: Bacillus subtilis PCI 219; assay: MIC, serial two-fold agar dilution method; format: cell-based; details: PCI219
Description: (§1) The minimum inhibitory concentration (MIC) of BBM-2040 was determined for a variety of gram-positive, gram-negative and acid-fast bacteria by the serial two-fold agar dilution method. Nutrient agar medium was used for gram-positive and gram-negative organisms and No. 1001 medium (3% glycerol, 0.3% sodium L-glutamate, 0.2% peptone, 0.31% Na2 HPO4, 0.1% KH2 PO4, 0.005% ammonium citrate, 0.001% MgSO4 and 1.5% agar) for acid-fast organisms.

Escherichia coli Juhl = assay: MIC, serial two-fold agar dilution method; format: cell-based
Description: as §1

Escherichia coli NIHJ = assay: MIC, serial two-fold agar dilution method; format: cell-based
Description: as §1

[2] = tested on: Klebsiella pneumoniae D-11; assay: MIC, serial two-fold agar dilution method; format: cell-based; details: D11
Description: as §1

Micrococcus flavus D12 = assay: MIC, serial two-fold agar dilution method; format: cell-based
Description: as §1

Mycobacterium phlei D88 = assay: MIC, serial two-fold agar dilution method; format: cell-based; details: Mycolicibacterium phlei
Description: as §1

[3] = tested on: Mycobacterium smegmatis 607; assay: MIC, serial two-fold agar dilution method; format: cell-based; details: Mycolicibacterium smegmatis
Description: as §1

Proteus vulgaris A9436 = assay: MIC, serial two-fold agar dilution method; format: cell-based
Description: as §1

[4] = tested on: Pseudomonas aeruginosa A9930; assay: MIC, serial two-fold agar dilution method; format: cell-based
Description: as §1

[5] = tested on: Staphylococcus aureus FDA 209P; assay: MIC, serial two-fold agar dilution method; format: cell-based; details: FDA209P
Description: as §1

[6] = tested on: Staphylococcus aureus Smith; assay: MIC, serial two-fold agar dilution method; format: cell-based
Description: as §1

[7] = tested on: Streptococcus pyogenes A20201; assay: MIC, serial two-fold agar dilution method; format: cell-based
Description: as §1

[8] = tested on: Streptococcus pyogenes PCI 1001; assay: MIC, serial two-fold agar dilution method; format: cell-based; details: PCI1001
Description: as §1

[9] = tested on: gram-positive, gram-negative and acid-fast bacteria; assay: antibacterial activity / spectrum; format: cell-based; details: Streptococcus pyogenes, Micrococcus luteus, Micrococcus flavus and Mycobacterium strains
Description: as §1

[10] = tested on: lymphocytic leukemia P388; assay: antitumor activity against lymphocytic leukemia P388 in mice (Table 6); format: in vivo, mice (BDF1 strain); details: qd 1→9; for antitumor activity in P388 experiment (comparison): ip
Description: The antitumor activity of BBM-2040A and B was determined in mice (BDF1 strain) against lymphocytic leukemia P388. Each mouse was inoculated intraperitoneally with 10^6 cells of tumor. Graded doses of test compounds were administered to mice intraperitoneally 24 hours after the tumor implantation. The treatments were given once daily for 9 days (qd 1→9 schedule). Neothramycin was comparatively tested as a reference compound.
*ratio of median survival time of test and control animals
**circle indicates significant antitumor effect.

[11] = intraperitoneal; reported value; cited from earlier work
[12] = Bacillus subtilis PCI 219, read-out: MIC
[13] = Escherichia coli Juhl, read-out: MIC
[14] = Escherichia coli NIHJ, read-out: MIC
[15] = Klebsiella pneumoniae D-11, read-out: MIC
[16] = Mycobacterium phlei D88, No. 1001 medium, read-out: MIC
[17] = Mycobacterium smegmatis 607, No. 1001 medium, read-out: MIC
[18] = Staphylococcus aureus FDA 209P, read-out: MIC
[19] = Staphylococcus aureus Smith, read-out: MIC
[20] = Streptococcus pyogenes PCI 1001, read-out: MIC
[21] = benzene, chloroform and n-hexane
[22] = ethyl acetate, acetone and water
[23] = methanol ethanol, n-butanol and pyridine

COc1cc2c(cc1O)N[C@H](OC)[C@@H]1C[C@@H](O)CN1C2=O [2β-Hydroxy epimer of BBM-2040 A]
Average weight change (lymphatic leukemia P388; 0.03 mg/kg/day i.p.): +1.0 g
MST (lymphatic leukemia P388; 0.03 mg/kg/day i.p.): 10.5 days
Survivors Day 5 (lymphatic leukemia P388; 0.03 mg/kg/day i.p.): 6/6
Survivors Day 22 (lymphatic leukemia P388; 0.03 mg/kg/day i.p.): 0/6
Effect MST % T/C (lymphatic leukemia P388; 0.03 mg/kg/day i.p.): 88%
Average weight change (lymphatic leukemia P388; 0.1 mg/kg/day i.p.): +1.3 g
MST (lymphatic leukemia P388; 0.1 mg/kg/day i.p.): 11.0 days
Survivors Day 5 (lymphatic leukemia P388; 0.1 mg/kg/day i.p.): 6/6
Survivors Day 22 (lymphatic leukemia P388; 0.1 mg/kg/day i.p.): 0/6
Effect MST % T/C (lymphatic leukemia P388; 0.1 mg/kg/day i.p.): 92%
Average weight change (lymphatic leukemia P388; 0.3 mg/kg/day i.p.): +1.8 g
MST (lymphatic leukemia P388; 0.3 mg/kg/day i.p.): 11.0 days
Survivors Day 5 (lymphatic leukemia P388; 0.3 mg/kg/day i.p.): 6/6
Survivors Day 22 (lymphatic leukemia P388; 0.3 mg/kg/day i.p.): 0/6
Effect MST % T/C (lymphatic leukemia P388; 0.3 mg/kg/day i.p.): 92%
Average weight change (lymphatic leukemia P388; 1 mg/kg/day i.p.): +1.0 g
MST (lymphatic leukemia P388; 1 mg/kg/day i.p.): 12.0 days
Survivors Day 5 (lymphatic leukemia P388; 1 mg/kg/day i.p.): 6/6
Survivors Day 22 (lymphatic leukemia P388; 1 mg/kg/day i.p.): 0/6
Effect MST % T/C (lymphatic leukemia P388; 1 mg/kg/day i.p.): 100%
antitumor activity in second P388 experiment (in words) (lymphatic leukemia P388): inactive

COc1cc2c(cc1O)N[C@H](OC)[C@@H]1C[C@H](O)CN1C2=O [BBM-2040A, 2(S),11(R),11a(S)-1,2,3,10,11,11a-Hexahydro-2,8-dihydroxy-7,11-dimethoxy-5H-pyrrolo-[2,1-c][1,4]benzodiazepin-5-one]
MIC [1, 12]: > 100 µg/mL
MIC (Escherichia coli Juhl; [13]): > 100 µg/mL
MIC (Escherichia coli NIHJ; [14]): > 100 µg/mL
MIC [2, 15]: > 100 µg/mL
MIC (Micrococcus flavus D12; read-out: MIC): 50 µg/mL (≈ 170 µM)
MIC (Mycobacterium phlei D88; [16]): 100 µg/mL (≈ 340 µM)
MIC [3, 17]: 100 µg/mL (≈ 340 µM)
MIC (Proteus vulgaris A9436; read-out: MIC): > 100 µg/mL
MIC ([4]; read-out: MIC): > 100 µg/mL
MIC [5, 18]: > 100 µg/mL
MIC [6, 19]: > 100 µg/mL
MIC ([7]; read-out: MIC): 50 µg/mL (≈ 170 µM)
MIC [8, 20]: 50 µg/mL (≈ 170 µM)
antibacterial activity [9]: weak antibacterial activity
T/C (%) in MST ([10]; 0.1 mg/kg/day ip): 96%
T/C (%) in MST ([10]; 0.3 mg/kg/day ip): 104%
antitumor activity in P388 experiment (comparison) [10]: similarly active
Average weight change (lymphatic leukemia P388; 0.1 mg/kg/day i.p.): +1.5 g
MST (lymphatic leukemia P388; 0.1 mg/kg/day i.p.): 12.0 days
Effect MST % T/C (lymphatic leukemia P388; 0.1 mg/kg/day i.p.): 100%
Average weight change (lymphatic leukemia P388; 0.3 mg/kg/day i.p.): +1.3 g
MST (lymphatic leukemia P388; 0.3 mg/kg/day i.p.): 14.0 days
Effect MST % T/C (lymphatic leukemia P388; 0.3 mg/kg/day i.p.): 117%
MST (lymphatic leukemia P388; 1 mg/kg/day i.p.): 16.0 days
Effect MST % T/C (lymphatic leukemia P388; 1 mg/kg/day i.p.): 133%
Average weight change (lymphatic leukemia P388; 3 mg/kg/day i.p.): +0.5 g
MST (lymphatic leukemia P388; 3 mg/kg/day i.p.): 17.0 days
Survivors Day 5 (lymphatic leukemia P388; 3 mg/kg/day i.p.): 6/6
Survivors Day 22 (lymphatic leukemia P388; 3 mg/kg/day i.p.): 0/6
Effect MST % T/C (lymphatic leukemia P388; 3 mg/kg/day i.p.): 142%
Average weight change (lymphatic leukemia P388; 10 mg/kg/day i.p.): -2.2 g
MST (lymphatic leukemia P388; 10 mg/kg/day i.p.): 19.5 days
Survivors Day 5 (lymphatic leukemia P388; 10 mg/kg/day i.p.): 6/6
Survivors Day 22 (lymphatic leukemia P388; 10 mg/kg/day i.p.): 1/6
Effect MST % T/C (lymphatic leukemia P388; 10 mg/kg/day i.p.): 163%
antitumor activity in second P388 experiment (in words) (lymphatic leukemia P388): similarly active
solubility (solubility; [21]): practically insoluble
solubility (solubility; [22]): slightly soluble
solubility (solubility; [23]): readily soluble

COc1cc2c(cc1O)N=C[C@@H]1C[C@H](O)CN1C2=O [BBM-2040B]
MIC [1, 12]: > 100 µg/mL
MIC (Escherichia coli Juhl; [13]): > 100 µg/mL
MIC (Escherichia coli NIHJ; [14]): > 100 µg/mL
MIC [2, 15]: > 100 µg/mL
MIC (Micrococcus flavus D12; read-out: MIC): 50 µg/mL (≈ 191 µM)
MIC (Mycobacterium phlei D88; [16]): 100 µg/mL (≈ 381 µM)
MIC [3, 17]: 100 µg/mL (≈ 381 µM)
MIC (Proteus vulgaris A9436; read-out: MIC): > 100 µg/mL
MIC ([4]; read-out: MIC): > 100 µg/mL
MIC [5, 18]: > 100 µg/mL
MIC [6, 19]: > 100 µg/mL
MIC ([7]; read-out: MIC): 50 µg/mL (≈ 191 µM)
MIC [8, 20]: 100 µg/mL (≈ 381 µM)
antibacterial activity [9]: weak antibacterial activity
T/C (%) in MST ([10]; 0.1 mg/kg/day ip): 104%
T/C (%) in MST ([10]; 0.3 mg/kg/day ip): 96%
T/C (%) in MST ([10]; 1 mg/kg/day ip): 112%
antitumor activity in P388 experiment (comparison) [10]: somewhat less active than BBM-2040A
solubility (solubility; [21]): practically insoluble
solubility (solubility; [22]): slightly soluble
solubility (solubility; [23]): readily soluble

COc1cc2c(cc1O)N=CC1CCC(O)N1C2=O (stereo not drawn) [Neothramycin]
MIC ([1]; Bacillus subtilis): 50 µg/mL (≈ 191 µM)
MIC (Escherichia coli Juhl; Escherichia coli): > 100 µg/mL
MIC (Escherichia coli NIHJ; Escherichia coli): 50 µg/mL (≈ 191 µM)
MIC ([2]; Klebsiella pneumoniae): 100 µg/mL (≈ 381 µM)
MIC (Micrococcus flavus D12): 100 µg/mL (≈ 381 µM)
MIC (Mycobacterium phlei D88; D88): > 100 µg/mL
MIC [3]; 607: > 100 µg/mL
MIC (Proteus vulgaris A9436): 100 µg/mL (≈ 381 µM)
MIC [4]: > 100 µg/mL
MIC ([5]; Staphylococcus aureus): > 100 µg/mL
MIC ([6]; Staphylococcus aureus): > 100 µg/mL
MIC [7]: 50 µg/mL (≈ 191 µM)
MIC ([8]; Streptococcus pyogenes): 100 µg/mL (≈ 381 µM)
T/C (%) in MST ([10]; 0.03 mg/kg/day ip): 96%
T/C (%) in MST ([10]; 0.1 mg/kg/day ip): 104%
T/C (%) in MST ([10]; 0.3 mg/kg/day ip): 112%
antitumor activity in P388 experiment (comparison) [10]: similarly active
Average weight change (lymphatic leukemia P388; 0.1 mg/kg/day i.p.): +1.0 g
MST (lymphatic leukemia P388; 0.1 mg/kg/day i.p.): 13.0 days
Survivors Day 5 (lymphatic leukemia P388; 0.1 mg/kg/day i.p.): 6/6
Survivors Day 22 (lymphatic leukemia P388; 0.1 mg/kg/day i.p.): 0/6
Effect MST % T/C (lymphatic leukemia P388; 0.1 mg/kg/day i.p.): 108%
Average weight change (lymphatic leukemia P388; 0.3 mg/kg/day i.p.): +0.8 g
MST (lymphatic leukemia P388; 0.3 mg/kg/day i.p.): 14.5 days
Survivors Day 5 (lymphatic leukemia P388; 0.3 mg/kg/day i.p.): 6/6
Survivors Day 22 (lymphatic leukemia P388; 0.3 mg/kg/day i.p.): 0/6
Effect MST % T/C (lymphatic leukemia P388; 0.3 mg/kg/day i.p.): 121%
Average weight change (lymphatic leukemia P388; 1 mg/kg/day i.p.): +0.5 g
MST (lymphatic leukemia P388; 1 mg/kg/day i.p.): 17.0 days
Survivors Day 5 (lymphatic leukemia P388; 1 mg/kg/day i.p.): 6/6
Survivors Day 22 (lymphatic leukemia P388; 1 mg/kg/day i.p.): 0/6
Effect MST % T/C (lymphatic leukemia P388; 1 mg/kg/day i.p.): 142%
Average weight change (lymphatic leukemia P388; 3 mg/kg/day i.p.): 0.0 g
MST (lymphatic leukemia P388; 3 mg/kg/day i.p.): 17.5 days
Survivors Day 5 (lymphatic leukemia P388; 3 mg/kg/day i.p.): 6/6
Survivors Day 22 (lymphatic leukemia P388; 3 mg/kg/day i.p.): 0/6
Effect MST % T/C (lymphatic leukemia P388; 3 mg/kg/day i.p.): 146%
antitumor activity in second P388 experiment (in words) (lymphatic leukemia P388): similarly active
LD50 [11]: 20 to 30 mg/kg
